Results from ChEMBL document CHEMBL4813957, “Antitubercular properties of thiazolidin-4-ones - A review” (Eur J Med Chem, 2021).
Values after ≈ are worked out from the molar mass of the structure shown.

Each molecule was assayed on Mycobacterium tuberculosis (assay: Antimycobacterial activity against Mycobacterium tuberculosis H37Rv incubated for 5 days by microplate alamar blue assay). Settings: 120 h, time 5 day.
Format: functional
For `O=C1CSC(c2c(-c3ccccc3)[nH]c3ccccc23)N1c1nc(-c2ccc(Cl)cc2)cs1` (stereo not given), the MIC was 50 µg/mL.
In the case of `Nc1ccc([N+](=O)[O-])cc1N1C(=O)/C(=C/c2ccccc2)SC1=S`, the MIC is reported as 12.5 µg/mL.
For `COc1ccc(/C=C2\SC(=S)N(c3ccc(N)cc3)C2=O)cc1`, the MIC was 12.5 µg/mL.
In the case of `O=C(NN1C(=O)CSC1c1c(-c2ccccc2)[nH]c2ccccc12)c1[nH]c2ccc(Cl)cc2c1-c1ccccc1` (stereo not given), the MIC is reported as 12.5 µg/mL.
With `Cc1ccc(NN2C(=O)CSC2c2ccc(-n3ccnc3)cc2)cc1` (stereo not given) the MIC was 14.3 µM.
For `CN(C)c1ccc(/C=C2\SC(=S)N(c3ccc(C=O)cc3)C2=O)cc1`, the MIC was 12.5 µg/mL.
With `COc1ccc(/C=C2\SC(=S)N(c3cc([N+](=O)[O-])ccc3N)C2=O)cc1` the MIC was 12.5 µg/mL.
In the case of `O=C1CSC(c2ccc(-n3cncn3)cc2)N1Nc1ccccc1` (stereo not given), the MIC is reported as 14.3 µM.
With `O=C1CSC(c2ccc(-n3ccnc3)cc2)N1Nc1ccccc1` (stereo not given) the MIC was 14.3 µM.
`NC(=O)c1cnccn1` [PYRAZINAMIDE] was tested, and the MIC was 3.12 µg/mL.

Each molecule was assayed on Mycobacterium tuberculosis (assay: Antimycobacterial activity against Mycobacterium tuberculosis H37Rv ATCC […] by microplate alamar blue assay). Settings: 168 h, time 7 day.
Format: functional
With `O=C1CSC(c2ccccc2)N1C1=NN2C(=CSC2c2ccccc2)S1` (stereo not given) the MIC was 6.25 µg/mL (≈ 15.7 µM).
`CN(C)c1ccc(C2SC=C3SC(N4C(=O)CSC4c4ccccc4)=NN32)cc1` (stereo not given) was tested, and the MIC was 6.25 µg/mL (≈ 14.2 µM).
With `Cc1ccc(C2SC=C3SC(N4C(=O)CSC4c4ccc(C)cc4)=NN32)cc1` (stereo not given) the MIC was 1.6 µg/mL (≈ 3.76 µM).
With `COc1ccc(C2SCC(=O)N2C2=NN3C(=CSC3c3ccc(N(C)C)cc3)S2)cc1` (stereo not given) the MIC was 3.12 µg/mL (≈ 6.63 µM).
With `COc1ccccc1C1SCC(=O)N1C1=NN2C(=CSC2c2ccc(N(C)C)cc2)S1` (stereo not given) the MIC was 3.12 µg/mL (≈ 6.63 µM).
`Cc1ccc(C2SC=C3SC(N4C(=O)CSC4c4ccccc4C)=NN32)cc1` (stereo not given) gave an MIC of 3.12 µg/mL (≈ 7.33 µM).
In the case of `O=C1CSC(c2ccc(O)cc2)N1C1=NN2C(=CSC2c2ccc(O)cc2)S1` (stereo not given), the MIC is reported as 1.6 µg/mL (≈ 3.72 µM).
`Cc1ccc(C2SC=C3SC(N4C(=O)CSC4c4ccccc4)=NN32)cc1` (stereo not given) was tested, and the MIC was 625 µg/mL (≈ 1520 µM).
`O=C1CSC(c2ccccc2)N1C1=NN2C(=CSC2c2ccc(O)cc2)S1` (stereo not given) gave an MIC of 6.25 µg/mL (≈ 15.1 µM).
`O=C1CSC(c2ccccc2Cl)N1C1=NN2C(=CSC2c2ccccc2)S1` (stereo not given) gave an MIC of 3.12 µg/mL (≈ 7.22 µM).
With `O=C1CSC(c2ccc(Cl)cc2)N1C1=NN2C(=CSC2c2ccccc2)S1` (stereo not given) the MIC was 3.12 µg/mL (≈ 7.22 µM).
In the case of `O=C1CSC(c2ccccc2O)N1C1=NN2C(=CSC2c2ccc(O)cc2)S1` (stereo not given), the MIC is reported as 3.12 µg/mL (≈ 7.26 µM).
In the case of `NC(=O)c1cnccn1` [PYRAZINAMIDE], the MIC is reported as 3.12 µg/mL (≈ 25.3 µM).

What follows are molecules tested on Mycobacterium tuberculosis (assay: Antimycobacterial activity against Mycobacterium tuberculosis H37Rv ATCC27294 measured after 28 days by two-fold serial dilution method). Settings: H37Rv ATCC 27294, 672 h, time 28 day.
Format: functional
Molecule `N=C1S/C(=C\c2ccc(OCc3ccccc3)cc2)C(=O)N1c1ncc([N+](=O)[O-])s1` has an MIC of 6.4 µM (≈ 2.81 µg/mL).
With `N=C1S/C(=C\c2cc([N+](=O)[O-])co2)C(=O)N1c1cccc(C(F)(F)F)c1` the MIC was 4.07 µM (≈ 1.56 µg/mL).
Work on `N=C1S/C(=C\c2ccccc2F)C(=O)N1c1ncc([N+](=O)[O-])s1` yielded an MIC of 3.9 µM (≈ 1.37 µg/mL).
`COc1cc(/C=C2\SC(=N)N(c3ncc([N+](=O)[O-])s3)C2=O)cc(OC)c1OC` gave an MIC of 3.31 µM (≈ 1.4 µg/mL).
For `N=C1S/C(=C\c2ccc(OCc3ccccc3)cc2)C(=O)N1c1cccc(C(F)(F)F)c1`, the MIC was 6.88 µM (≈ 3.13 µg/mL).
Work on `N=C1S/C(=C\c2cc([N+](=O)[O-])co2)C(=O)N1c1ncc([N+](=O)[O-])s1` yielded an MIC of 7.49 µM (≈ 2.75 µg/mL).
Molecule `COc1cc(/C=C2\SC(=N)N(c3cccc(C(F)(F)F)c3)C2=O)cc(OC)c1OC` has an MIC of 7.11 µM (≈ 3.12 µg/mL).
In the case of `COc1cc(/C=C2\SC(=N)N(c3nc4ccc([N+](=O)[O-])cc4s3)C2=O)cc(OC)c1OC`, the MIC is reported as 7.4 µM (≈ 3.5 µg/mL).
For `COc1ccc(/C=C2\SC(=N)N(c3cccc(C(F)(F)F)c3)C2=O)cc1`, the MIC was 4.12 µM (≈ 1.56 µg/mL).
`N=C1S/C(=C\c2cc([N+](=O)[O-])co2)C(=O)N1c1nc2ccc([N+](=O)[O-])cc2s1` gave an MIC of 6.81 µM (≈ 2.84 µg/mL).
With `N=C1S/C(=C\c2ccccc2F)C(=O)N1c1nc2ccc([N+](=O)[O-])cc2s1` the MIC was 4.26 µM (≈ 1.71 µg/mL).
In the case of `COc1ccc(/C=C2\SC(=N)N(c3ncc([N+](=O)[O-])s3)C2=O)cc1`, the MIC is reported as 3.78 µM (≈ 1.37 µg/mL).
Work on `N=C1S/C(=C\c2cc([N+](=O)[O-])cs2)C(=O)N1c1nc2ccc([N+](=O)[O-])cc2s1` yielded an MIC of 6.52 µM (≈ 2.83 µg/mL).
Work on `N=C1S/C(=C\c2cc([N+](=O)[O-])cs2)C(=O)N1c1ncc([N+](=O)[O-])s1` yielded an MIC of 7.21 µM (≈ 2.76 µg/mL).
`N=C1S/C(=C\c2ccccc2F)C(=O)N1c1cccc(C(F)(F)F)c1` gave an MIC of 4.25 µM (≈ 1.56 µg/mL).
In the case of `CC[C@@H](CO)NCCN[C@@H](CC)CO` [ETHAMBUTOL], the MIC is reported as 7.64 µM (≈ 1.56 µg/mL).

The molecules below were run on Mycobacterium tuberculosis (assay: Antimycobacterial activity against Mycobacterium tuberculosis H37Ra ATCC 25177 incubated for 7 days by microplate alamar blue assay). Settings: H37Ra ATCC 25177, 168 h, time 7 day.
Format: functional
`COc1cc(/C=N/NC(=S)Nc2ccc(Cl)cc2)ccc1OC(=O)CC1SC(=O)NC1=O` (stereo not given) showed an MIC of 2 µg/mL (≈ 4.06 µM).
For `O=C(CC1SC(=O)NC1=O)Oc1ccc(/C=N/NC(=S)Nc2ccc(Cl)cc2)cc1` (stereo not given), the MIC was 2 µg/mL (≈ 4.32 µM).
`COc1cc(/C=N/NC(=S)Nc2ccccc2)ccc1OC(=O)/C=C1\SC(=O)NC1=O` was tested, and the MIC was 2 µg/mL (≈ 4.38 µM).
`COc1cc(/C=N/NC(=S)Nc2ccccc2)ccc1OC(=O)CC1SC(=O)NC1=O` (stereo not given) showed an MIC of 2 µg/mL (≈ 4.36 µM).
For `COc1cc(/C=N/NC(=S)Nc2cccc(Cl)c2)ccc1OC(=O)/C=C1\SC(=O)NC1=O`, the MIC was 2 µg/mL (≈ 4.07 µM).
For `COc1cc(/C=N/NC(=S)Nc2cccc(Cl)c2)ccc1OC(=O)CC1SC(=O)NC1=O` (stereo not given), the MIC was 2 µg/mL (≈ 4.06 µM).
